In one assay the test system is Wistar rats. Description: Acetic Acid-Induced Writhing in Rats Test. As to conditions: Rattus norvegicus, ip, 0.5 ml 1% acetic acid i.p., compound given 15 min after acetic acid, writhes counted 60-75 min after acetic acid, dose reducing to less than 16 writhes in 50% of the animals, read-out: Writhing in Rats Test ED50 in mg/kg body weight. The assay is classed as in vivo. Here is the method:
The Acetic Acid-Induced Writhing in Rats Test is known to be a useful tool for the evaluation of the analgesic properties of given test compound (see in connection herewith Drug Research, 25, 1505-1509 (1975)).
Wistar rats weighing about 100g were used throughout. They were injected i.p. with 0.5 ml of a 1% aqueous solution of acetic acid and placed in individual glass containers for observation. […] 5 Min. later (15 min. after the acetic acid treatment) the test compound was administered. […] The lowest effective dose in 50% of the test animals (ED₅₀) was determined as that dose in mg/kg body weight capable of reducing the number of writhes during the 15 minutes observation period to less than 16 writhes in 50% of the tested animals.
Said ED₅₀ values for a number of compounds having the formula (I) and the pharmaceutically acceptable acid-addition salts thereof are gathered in Table 1.
(An intraperitoneal irritant provokes the stretching counted in writhing tests.)

The test system of the next assay is Male Wistar rats. Nature of the assay: Tail Withdrawal Test. The format is in vivo. The conditions noted are these: Rattus norvegicus, iv, tail immersed in water at 55°C, dose suppressing the tail withdrawal response for more than 10 seconds in 50% of the animals, read-out: Tail Witdrawal Test ED50 in mg/kg body weight. Here is the method:
Male Wistar rats weighing 200g ± 5g were fasted overnight, water being available at libitum. Aqueous solutions, made isotonic with sodium chloride, of the test compounds at various concentrations were administered to the test animals intraveneously (i.v.). The thus treated rats were put into individual restraining cages. At various time periods after administration, the lower 5 cm portion of the tail was immersed into a cup filled with water at a constant temperature of 55°C. The typical tail withdrawal response was evaluated during a 10 sec. period after the immersion. ED₅₀ values in mg/kg body weight were determined as that dose of the test compound capable of suppressing in 50% of the tested animals the typical tail withdrawal response during a time period exceeding 10 seconds. Said ED₅₀ values for a number of compounds having the formula (I) and the pharma- ceutically acceptable acid-addition salts thereof are gathered in Table 1.

The results in this text go back to patent publication EP0211457A2, “Novel (4-substituted-piperazinyl)pyridazines” (JANSSEN PHARMACEUTICA N.V., priority 1985, dated 1987).

Where a name gives a salt, the structure may show the parent alone.

Turning to `Clc1ccc(N2CCN(C/C=C/c3ccccc3)CC2)nn1` [compound 1, (E)-3-chloro-6-[4-(3-phenyl-2-propenyl)-1-piperazinyl]pyridazine], the ED50 with Wistar rats came to 5 mg/kg; in the assay on Male Wistar rats, 20 mg/kg.

As for `CC1CN(C/C=C/c2ccccc2)CCN1c1ccc(Cl)nn1` (centres unmarked) [compound 2, (E)-3-chloro-6-[2-methyl-4-(3-phenyl-2-propenyl)-1-piperazinyl]pyridazine monohydrochloride.hemihydrate], the figures for the ED50 in the assay on Wistar rats and with Male Wistar rats were 5 mg/kg and 10 mg/kg, respectively.

As for `Brc1ccc(N2CCN(C/C=C/c3ccccc3)CC2)nn1` [compound 3, (E)-3-bromo-6-[4-(3-phenyl-2-propenyl)-1-piperazinyl]pyridazine], in the assay on Wistar rats, the ED50 was 10 mg/kg.

Regarding `COc1ccc(N2CCN(C/C=C/c3ccccc3)CC2)nn1` [compound 4, (E)-3-methoxy-6-[4-(3-phenyl-2-propenyl)-1-piperazinyl]pyridazine], the ED50 was found to be 5 mg/kg with Wistar rats and 40 mg/kg in the assay with Male Wistar rats.

Consider `Clc1ccc(/C=C/CN2CCN(c3ccc(Cl)nn3)CC2)cc1` [compound 5, (E)-3-chloro-6-[4-[3-(4-chlorophenyl)-2-propenyl]-1-piperazinyl]pyridazine], for which the ED50 in the assay on Wistar rats was 40 mg/kg.

On to `Clc1ccc(N2CCCN(C/C=C/c3ccccc3)CC2)nn1` [compound 7], for which the ED50 with Wistar rats was determined as 20 mg/kg; in the assay with Male Wistar rats, 40 mg/kg.

With `C(=C\c1ccccc1)/CN1CCN(c2cccnn2)CC1` [compound 8], in the assay with Wistar rats, the ED50 was determined as 2.5 mg/kg.

As to `COc1ccc(N2CCN(C/C=C/c3ccc(F)cc3)CC2)nn1` [compound 9], the ED50 with Wistar rats stood at 10 mg/kg.

With `Fc1ccc(/C=C/CN2CCN(c3ccc(Cl)nn3)CC2)cc1` [compound 10], in the assay on Wistar rats, the ED50 was determined as 20 mg/kg.

Regarding `Fc1ccc(/C=C/CN2CCN(c3cccnn3)CC2)cc1` [compound 11], the ED50 in the assay with Wistar rats turned out to be 40 mg/kg.

Turning to `Clc1ccc(N2CCN(C/C=C/c3cccs3)CC2)nn1` [compound 12], the ED50 with Wistar rats is 10 mg/kg.

With `Cc1ccc(/C=C/CN2CCN(c3ccc(Cl)nn3)CC2)cc1` [compound 13], the ED50 in the assay with Wistar rats came out at 40 mg/kg.

With `COc1ccc(/C=C/CN2CCN(c3ccc(Cl)nn3)CC2)cc1` [compound 14], the ED50 with Wistar rats is 40 mg/kg.

With `COc1ccc(/C=C/CN2CCN(c3cccnn3)CC2)cc1` [compound 18], the ED50 with Wistar rats came out at 40 mg/kg.

Take `C(=C\c1ccccc1)/CN1CCCN(c2ccc(-c3ccccc3)nn2)CC1` [compound 19]: in the assay on Wistar rats, the ED50 worked out at 10 mg/kg.

For `Cl.Cl.Clc1ccc(N2CCN(C/C=C/c3ccccc3)CC2)nn1` [compound 37, (E)-3-chloro-6-[4-(3-phenyl-2-propenyl)-1-piperazinyl]pyridazine dihydrochloride], the ED50 in the assay with Wistar rats is 10 mg/kg; in the assay with Male Wistar rats it was less than 40 mg/kg.

Consider `[O-][N+]1(C/C=C/c2ccccc2)CCN(c2ccc(Cl)nn2)CC1` [compound 38, (E)-3-chloro-6-[4-(3-phenyl-2-propenyl)-1-piperazinyl]pyridazine, 4-oxide], for which the ED50 in the assay with Wistar rats was 10 mg/kg; in the assay on Male Wistar rats, not below 20 mg/kg.
